Measured values published in the supplement of paper PMC7600603.

What was measured:
[1] = test system: DLD1 NRF2-GOF; settings: 72 h; CellTiter-Glo viability
How it was run: (§1)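 DLD1 colorectal cancer cells, an isogenic pair either NRF2 wild-type or carrying a CRISPR gain-of-function, were cultured in DMEM with 10% FBS and treated in 384-well plates with library compounds at 5 concentrations across a 10,000-fold range. CellTiter-Glo viability was read on a Pherastar FS reader after 72 h and normalised to vehicle wells and 100-μM positive-control wells. Four-parameter logistic dose-response fits were applied. EC50 and drug sensitivity score, a normalised area under the curve, were taken from these fits.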

[2] = test system: DLD1 NRF2-WT; settings: 72 h; CellTiter-Glo viability
How it was run: as §1

[3] = test system: DLD1 NRF2-GOF; assay: TC50 cytotoxicity; higher = less toxic; settings: 72 h; CellTox Green cytotoxicity
How it was run: (§2)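 Isogenic DLD1 colorectal cancer cells, either NRF2 wild-type or CRISPR gain-of-function, were grown in DMEM with 10% FBS. They were exposed in 384-well plates to library compounds at 5 concentrations spanning a 10,000-fold range. After 72 h, cytotoxicity was read by CellTox Green on a Pherastar FS reader and normalised to vehicle wells and 100-μM positive-control wells. TC50 and drug sensitivity score (a normalised area under the curve) came from logistic dose-response fits.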

[4] = test system: DLD1 NRF2-WT; assay: TC50 cytotoxicity; higher = less toxic; settings: 72 h; CellTox Green cytotoxicity
How it was run: as §2

[5] = test system: DLD1 NRF2-GOF; assay: drug sensitivity score (DSS) cytotoxicity (DSS score); higher = more toxic; extreme values may be limits of the assay; settings: 72 h; CellTox Green cytotoxicity
How it was run: as §2

[6] = test system: DLD1 NRF2-WT; assay: as above; settings: 72 h; CellTox Green cytotoxicity
How it was run: as §2

[7] = test system: DLD1 NRF2-GOF; assay: drug sensitivity score (DSS) viability (DSS score); higher = more sensitive; extreme values may be limits of the assay; settings: 72 h; CellTiter-Glo viability
How it was run: as §1

[8] = test system: DLD1 NRF2-WT; assay: as above; settings: 72 h; CellTiter-Glo viability
How it was run: as §1

Structure (SMILES) | EC50 viability [1] | EC50 viability [2] | TC50 cytotoxicity [3] | TC50 cytotoxicity [4] | drug sensitivity score [5] | drug sensitivity score [6] | drug sensitivity score [7] | drug sensitivity score [8]
O=C(Nc1ccc(OC(F)(F)Cl)cc1)c1cnc(N2CC[C@@H](O)C2)c(-c2cc[nH]n2)c1 [NVP-ABL001] | > 1000 nM | > 1000 nM | > 1000 nM | > 1000 nM | 0 | 0 | 2.3 | 0.1
Nc1ncnc2c1c(-c1cccc(OCc3ccccc3)c1)cn2[C@H]1C[C@@H](CN2CCC2)C1 [NVP-AEW541] | 3120 nM | 1770 nM | > 10000 nM | > 10000 nM | 1.5 | 0.1 | 5 | 6.8
CCN1CCN(c2ccc(Nc3cc(N(C)C(=O)Nc4c(Cl)c(OC)cc(OC)c4Cl)ncn3)cc2)CC1 [NVP-BGJ398] | > 1000 nM | > 1000 nM | > 1000 nM | > 1000 nM | 0 | 0 | 0 | 0
COc1ccc(-c2ccc3ncc4c(c3c2)n(-c2ccc(N3CCNCC3)c(C(F)(F)F)c2)c(=O)n4C)cn1 [NVP-BGT226] | 35 nM | 26.4 nM | 359 nM | 338 nM | 4.1 | 4.4 | 16.2 | 17.5
Cc1ccc(C(=O)Nc2cccc(C(F)(F)F)c2)cc1Nc1nc(-c2cccnc2)nc2c1cnn2C [NVP-BHG712] | > 10000 nM | > 10000 nM | > 10000 nM | > 10000 nM | 0 | 0 | 0.9 | 2.2
CN[C@@H](C)C(=O)N[C@H](C(=O)N1CCC[C@H]1c1nc(C(=O)c2ccc(F)cc2)cs1)C1CCCCC1 [NVP-LCL161] | 2360 nM | > 25000 nM | > 25000 nM | > 25000 nM | 0 | 0 | 4.8 | 2.1
CC(=O)c1cc2c(o1)C(=O)c1ccccc1C2=O [Napabucasin] | 210 nM | 361 nM | 465 nM | 617 nM | 19.6 | 16.1 | 23.9 | 21
CCOc1cc2ncc(C#N)c(Nc3ccc(OCc4ccccn4)c(Cl)c3)c2cc1NC(=O)/C=C/CN(C)C [Neratinib] | 305 nM | 102 nM | > 1000 nM | > 1000 nM | 0 | 0 | 2.2 | 5.7
Cc1cn(-c2cc(NC(=O)c3ccc(C)c(Nc4nccc(-c5cccnc5)n4)c3)cc(C(F)(F)F)c2)cn1 [Nilotinib] | 983 nM | > 10000 nM | > 10000 nM | > 10000 nM | 0 | 0 | 4 | 2.5
COC(=O)c1ccc2c(c1)NC(=O)/C2=C(\Nc1ccc(N(C)C(=O)CN2CCN(C)CC2)cc1)c1ccccc1 [Nintedanib] | > 10000 nM | > 10000 nM | > 10000 nM | > 10000 nM | 0 | 0.5 | 0 | 0.5
CC(O)c1cc(C(=O)N[C@@H](C)Cn2ccc(-c3ccc(C#N)c(Cl)c3)n2)n[nH]1 (stereo partly specified) [ODM-201] | > 2500 nM | > 2500 nM | > 2500 nM | > 2500 nM | 0 | 0 | 0.9 | 0.2
CC(=O)c1cnc2ccc(-c3cc(Cl)c(O)c(Cl)c3)nc2c1N[C@H]1CC[C@H](CN(C)C)CC1 [OTS167] | 54.5 nM | 70.7 nM | > 1000 nM | > 1000 nM | 3 | 0.6 | 13 | 12.8
COC(=O)C[C@](O)(CCCC(C)(C)O)C(=O)O[C@@H]1C(OC)=C[C@]23CCCN2CCc2cc4c(cc2[C@H]13)OCO4 [Omacetaxine] | 54.6 nM | 51.9 nM | 329 nM | 346 nM | 8.4 | 10.1 | 26.9 | 27.6
COc1ncc(-c2ccc3nccc(-c4ccnnc4)c3c2)cc1NS(=O)(=O)c1ccc(F)cc1F [Omipalisib] | 25.3 nM | 7.1 nM | > 1000 nM | > 1000 nM | 0 | 0 | 12.6 | 18.7
COC[C@H](NC(=O)c1cnc(C)s1)C(=O)N[C@@H](COC)C(=O)N[C@@H](Cc1ccccc1)C(=O)[C@@]1(C)CO1 [Oprozomib] | 50.4 nM | 67 nM | 116 nM | 56.9 nM | 15.9 | 19.7 | 20.2 | 18.8
C=CC(=O)Nc1cc(Nc2nccc(-c3cn(C)c4ccccc34)n2)c(OC)cc1N(C)CCN(C)C [Osimertinib] | 402 nM | 424 nM | > 2500 nM | > 2500 nM | 0 | 0.7 | 4.7 | 6.6
COc1ccccc1S(=O)(=O)Nc1ccc2c(c1)CN(C)C(=O)N2 [PFI-1] | > 30000 nM | 1940 nM | > 30000 nM | > 30000 nM | 0 | 0 | 0 | 3.2
O=C(Nc1cc(Cl)cc2c1[nH]c1cnccc12)c1cccnc1 [PS-1145] | 1340 nM | 771 nM | > 25000 nM | > 25000 nM | 0 | 0 | 5.2 | 6.2
COc1cc(Br)c(Nc2nc(-c3c(C)nc4ncccn34)cs2)c(Br)c1 [PTC-209] | 1440 nM | 464 nM | > 10000 nM | > 10000 nM | 0 | 0 | 6.2 | 10.8
CC(=O)O[C@H]1C(=O)[C@@]2(C)[C@H]([C@H](OC(=O)c3ccccc3)[C@]3(O)C[C@H](OC(=O)[C@H](O)[C@@H](NC(=O)c4ccccc4)c4ccccc4)C(C)=C1C3(C)C)[C@]1(OC(C)=O)CO[C@@H]1C[C@@H]2O [Paclitaxel] | 3.9 nM | 3.2 nM | > 1000 nM | 17.4 nM | 4.7 | 10.5 | 24 | 24.1
C1=N/C2=N/c3ccc(OCCN4CCCC4)c(c3)COC/C=C/COCc3cccc(c3)C(=C1)N2 [Pacritinib] | 855 nM | 511 nM | 1800 nM | 1980 nM | 8.6 | 8.1 | 12.6 | 15.1

Structure (SMILES) | EC50 viability [1] | EC50 viability [2] | TC50 cytotoxicity [3] | TC50 cytotoxicity [4] | drug sensitivity score [5] | drug sensitivity score [6] | drug sensitivity score [7] | drug sensitivity score [8]
CC(=O)c1c(C)c2cnc(Nc3ccc(N4CCNCC4)cn3)nc2n(C2CCCC2)c1=O [Palbociclib] | 1490 nM | 315 nM | > 10000 nM | > 10000 nM | 0 | 0.2 | 6.7 | 12.3
COc1ccc(COc2cc3oc(=O)c4cc(C(C)O)ccc4c3cc2OC)cc1 (stereo unspecified) [Palomid-529] | > 10000 nM | > 10000 nM | > 10000 nM | > 10000 nM | 0 | 0 | 0.6 | 0
Cc1[nH]c2ccccc2c1CCNCc1ccc(/C=C/C(=O)NO)cc1 [Panobinostat] | 70.1 nM | 64.9 nM | > 1000 nM | 124 nM | 1.1 | 6.6 | 11.2 | 13.3
Cc1ccc(Nc2nccc(N(C)c3ccc4c(C)n(C)nc4c3)n2)cc1S(N)(=O)=O [Pazopanib] | 44.4 nM | 53.1 nM | > 10000 nM | > 10000 nM | 0 | 0 | 10.2 | 6.9
FC(F)(F)c1ccc(CNc2ccc(Cc3c[nH]c4ncc(Cl)cc34)cn2)cn1 [Pexidartinib] | > 10000 nM | > 10000 nM | > 10000 nM | > 10000 nM | 0 | 0 | 0.9 | 0
CS(=O)(=O)N1CCN(Cc2cc3nc(-c4cccc5[nH]ncc45)nc(N4CCOCC4)c3s2)CC1 [Pictilisib] | 1590 nM | 1000 nM | > 10000 nM | > 10000 nM | 0 | 0.1 | 5.8 | 6.8
CC[C@@H]1C(=O)OC[C@@H]1Cc1cncn1C [Pilocarpine] | > 40000 nM | > 40000 nM | > 40000 nM | > 40000 nM | 0 | 0 | 0.1 | 0
Cc1ccc(=O)n(-c2ccccc2)c1 [Pirfenidone] | > 10000 nM | > 10000 nM | > 10000 nM | > 10000 nM | 0 | 0 | 0 | 0
NCCNc1ccc(NCCN)c2c1C(=O)c1ccncc1C2=O [Pixantrone] | 1110 nM | 1680 nM | > 10000 nM | > 10000 nM | 0 | 0 | 4.9 | 4
C=CC(=O)N1CCC(Oc2cc3c(Nc4ccc(Cl)c(Cl)c4F)ncnc3cc2OC)CC1 [Poziotinib] | 258 nM | 203 nM | > 1000 nM | > 1000 nM | 0 | 0 | 2.7 | 3.6
CCCCc1nc2cc(/C=C/C(=O)NO)ccc2n1CCN(CC)CC [Pracinostat] | 929 nM | 795 nM | > 10000 nM | 1480 nM | 1.6 | 4 | 9.1 | 11.9
COc1cccc(OCCCN)c1-c1cc(Nc2cnc(C#N)cn2)n[nH]1 [Prexasertib] | 365 nM | 737 nM | 931 nM | 1490 nM | 3.6 | 3.8 | 13.5 | 12.1
COC(=O)c1ccc([C@H]2c3[nH]c4ccccc4c3C[C@H](C(=O)OC)N2C(=O)CCl)cc1 [RSL3] | 17.4 nM | > 10000 nM | > 10000 nM | > 10000 nM | 0 | 0 | 9 | 6.6
Cc1cnc(NC(=O)Nc2cc(Br)c(C)cc2OC[C@@H]2CNCCO2)cn1 [Rabusertib] | > 1000 nM | > 1000 nM | > 1000 nM | > 1000 nM | 0 | 0 | 1 | 0.3
Cc1cn(-c2cc(NC(=O)c3ccc(C)c(Nc4nccc(-c5cnccn5)n4)c3)cc(C(F)(F)F)c2)cn1 [Radotinib] | > 10000 nM | > 10000 nM | > 10000 nM | > 10000 nM | 0.3 | 0 | 0.4 | 0
CC(C)(C)Cn1c(N)nc2ccc(-c3[nH]c(C(C)(C)C)nc3-c3ccc(F)cc3)nc21 [Ralimetinib] | 2830 nM | 1940 nM | > 10000 nM | > 10000 nM | 0 | 0 | 2.9 | 4.3
Cc1nc(=O)c2cc(CN(C)c3ccc(C(=O)N[C@@H](CCC(=O)O)C(=O)O)s3)ccc2[nH]1 [Raltitrexed] | 8.3 nM | 14.7 nM | > 1000 nM | > 1000 nM | 0 | 0 | 18 | 16
CNC(=O)c1cc(Oc2ccc(NC(=O)Nc3ccc(Cl)c(C(F)(F)F)c3)c(F)c2)ccn1 [Regorafenib] | 3710 nM | 3300 nM | > 10000 nM | > 10000 nM | 0 | 0 | 2.4 | 3.8
CCOCc1nc2c(N)nc3ccccc3c2n1CC(C)(C)O [Resiquimod] | > 10000 nM | > 10000 nM | > 10000 nM | > 10000 nM | 0 | 0 | 0.6 | 0.7
CN(C)C(=O)c1cc2cnc(Nc3ccc(N4CCNCC4)cn3)nc2n1C1CCCC1 [Ribociclib] | 168 nM | 460 nM | > 10000 nM | > 10000 nM | 0 | 0 | 6.8 | 8.2
C=CC(=O)Nc1cccc(Nc2nc(Nc3ccc(N4CCN(C(C)=O)CC4)cc3OC)ncc2C(F)(F)F)c1 [Rociletinib] | 3690 nM | 2440 nM | > 10000 nM | 3150 nM | 0.7 | 1.5 | 3.1 | 5.3
